From patent EP4592286A1, “MACROCYCLIC NITROGEN-CONTAINING CROWN ETHER COMPOUND AND USE THEREOF AS PROTEIN KINASE INHIBITOR” (Artivila Biopharma, priority 2022, dated 2024)
Values after ≈ are worked out from the molar mass of the structure shown.

Tests used:
[1] = target: JAK1 (Homo sapiens, UniProt P23458); experiment: experiment of inhibiting kinase activity (Caliper mobility shift assay), JAK1; format: biochemical; details: read-out: inhibition rate JAK1
In short: (§1)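 Replicate wells; top concentration 10 µM, 3-fold steps, 10 points (or 10 nM/100 nM single doses). Enzyme preincubated 10 min RT with compound; ATP/substrate start; stop solution; Caliper conversion read. IC50 by Hill-slope curve fit.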

[2] = target: T1, JAK3 (Homo sapiens, UniProt P52333); experiment: experiment of inhibiting kinase activity (Caliper mobility shift assay), JAK3; format: biochemical; details: read-out: inhibition rate JAK3; for inhibition at 0.01 µM: at 10 nM
T1 sequence (P52333 1-1124): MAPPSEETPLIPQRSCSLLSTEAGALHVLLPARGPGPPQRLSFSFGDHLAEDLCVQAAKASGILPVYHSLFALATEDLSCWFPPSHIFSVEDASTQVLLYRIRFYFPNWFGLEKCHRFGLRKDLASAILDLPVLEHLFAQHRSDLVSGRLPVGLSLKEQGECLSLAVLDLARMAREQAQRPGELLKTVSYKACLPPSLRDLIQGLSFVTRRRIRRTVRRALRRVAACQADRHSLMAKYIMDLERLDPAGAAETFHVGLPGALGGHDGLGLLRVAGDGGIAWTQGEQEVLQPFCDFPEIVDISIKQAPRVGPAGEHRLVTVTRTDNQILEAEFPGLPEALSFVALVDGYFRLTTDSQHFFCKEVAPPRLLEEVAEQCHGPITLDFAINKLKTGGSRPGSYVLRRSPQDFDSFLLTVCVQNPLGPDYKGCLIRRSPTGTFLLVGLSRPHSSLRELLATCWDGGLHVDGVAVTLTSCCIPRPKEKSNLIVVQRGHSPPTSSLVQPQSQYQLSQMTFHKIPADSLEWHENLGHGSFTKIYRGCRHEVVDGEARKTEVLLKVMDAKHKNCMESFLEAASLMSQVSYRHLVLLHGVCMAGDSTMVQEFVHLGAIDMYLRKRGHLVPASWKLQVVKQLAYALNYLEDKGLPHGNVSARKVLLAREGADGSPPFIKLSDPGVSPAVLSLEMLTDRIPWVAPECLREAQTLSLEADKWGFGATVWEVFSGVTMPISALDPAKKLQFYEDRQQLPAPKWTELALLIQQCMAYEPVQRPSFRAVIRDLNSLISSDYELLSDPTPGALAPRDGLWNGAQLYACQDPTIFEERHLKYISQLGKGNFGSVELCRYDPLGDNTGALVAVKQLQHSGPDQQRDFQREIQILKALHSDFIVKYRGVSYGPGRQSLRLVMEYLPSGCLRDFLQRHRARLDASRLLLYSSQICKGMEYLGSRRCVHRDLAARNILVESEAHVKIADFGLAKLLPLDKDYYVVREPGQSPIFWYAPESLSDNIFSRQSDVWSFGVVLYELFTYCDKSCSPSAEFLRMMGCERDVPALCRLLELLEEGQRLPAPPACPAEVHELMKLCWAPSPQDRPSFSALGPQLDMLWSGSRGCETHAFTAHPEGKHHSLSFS
In short: as §1

[3] = target: JAK2 (Homo sapiens, UniProt O60674); experiment: experiment of inhibiting kinase activity (Caliper mobility shift assay), JAK2; format: biochemical; details: read-out: inhibition rate JAK2; for inhibition at 0.01 µM: at 10 nM
JAK2, sequence (O60674 whole entry): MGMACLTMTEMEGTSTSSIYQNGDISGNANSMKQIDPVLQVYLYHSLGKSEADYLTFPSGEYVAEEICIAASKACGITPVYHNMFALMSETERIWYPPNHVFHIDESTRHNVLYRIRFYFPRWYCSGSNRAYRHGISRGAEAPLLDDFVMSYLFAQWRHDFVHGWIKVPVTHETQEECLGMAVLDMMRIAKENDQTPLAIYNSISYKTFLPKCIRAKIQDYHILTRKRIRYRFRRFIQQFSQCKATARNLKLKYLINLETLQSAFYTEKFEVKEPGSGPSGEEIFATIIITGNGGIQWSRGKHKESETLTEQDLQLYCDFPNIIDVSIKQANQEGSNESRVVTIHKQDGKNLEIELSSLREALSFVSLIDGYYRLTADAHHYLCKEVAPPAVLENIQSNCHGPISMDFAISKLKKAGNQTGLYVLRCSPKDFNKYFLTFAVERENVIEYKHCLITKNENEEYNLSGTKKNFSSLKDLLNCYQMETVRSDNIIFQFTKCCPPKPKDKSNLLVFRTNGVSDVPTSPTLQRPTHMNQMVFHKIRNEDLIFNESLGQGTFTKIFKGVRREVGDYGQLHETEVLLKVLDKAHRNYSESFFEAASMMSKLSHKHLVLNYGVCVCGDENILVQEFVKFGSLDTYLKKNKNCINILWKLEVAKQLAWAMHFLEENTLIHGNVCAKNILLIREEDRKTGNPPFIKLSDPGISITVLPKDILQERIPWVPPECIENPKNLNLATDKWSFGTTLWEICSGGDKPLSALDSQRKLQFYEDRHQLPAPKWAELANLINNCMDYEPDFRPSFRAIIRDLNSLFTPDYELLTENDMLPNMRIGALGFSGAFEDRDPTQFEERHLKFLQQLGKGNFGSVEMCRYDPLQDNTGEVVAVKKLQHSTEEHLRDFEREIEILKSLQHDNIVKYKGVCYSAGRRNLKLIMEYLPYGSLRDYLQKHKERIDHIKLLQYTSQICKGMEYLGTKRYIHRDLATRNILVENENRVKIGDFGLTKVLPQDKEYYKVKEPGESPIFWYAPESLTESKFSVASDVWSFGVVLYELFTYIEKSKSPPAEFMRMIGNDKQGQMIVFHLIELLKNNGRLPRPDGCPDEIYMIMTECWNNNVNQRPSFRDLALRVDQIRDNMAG
In short: as §1

[4] = target: TYK2 (Homo sapiens, UniProt P29597); experiment: experiment of inhibiting kinase activity, TYK2; format: biochemical; details: read-out: inhibition rate TYK2
TYK2, sequence (P29597 whole entry): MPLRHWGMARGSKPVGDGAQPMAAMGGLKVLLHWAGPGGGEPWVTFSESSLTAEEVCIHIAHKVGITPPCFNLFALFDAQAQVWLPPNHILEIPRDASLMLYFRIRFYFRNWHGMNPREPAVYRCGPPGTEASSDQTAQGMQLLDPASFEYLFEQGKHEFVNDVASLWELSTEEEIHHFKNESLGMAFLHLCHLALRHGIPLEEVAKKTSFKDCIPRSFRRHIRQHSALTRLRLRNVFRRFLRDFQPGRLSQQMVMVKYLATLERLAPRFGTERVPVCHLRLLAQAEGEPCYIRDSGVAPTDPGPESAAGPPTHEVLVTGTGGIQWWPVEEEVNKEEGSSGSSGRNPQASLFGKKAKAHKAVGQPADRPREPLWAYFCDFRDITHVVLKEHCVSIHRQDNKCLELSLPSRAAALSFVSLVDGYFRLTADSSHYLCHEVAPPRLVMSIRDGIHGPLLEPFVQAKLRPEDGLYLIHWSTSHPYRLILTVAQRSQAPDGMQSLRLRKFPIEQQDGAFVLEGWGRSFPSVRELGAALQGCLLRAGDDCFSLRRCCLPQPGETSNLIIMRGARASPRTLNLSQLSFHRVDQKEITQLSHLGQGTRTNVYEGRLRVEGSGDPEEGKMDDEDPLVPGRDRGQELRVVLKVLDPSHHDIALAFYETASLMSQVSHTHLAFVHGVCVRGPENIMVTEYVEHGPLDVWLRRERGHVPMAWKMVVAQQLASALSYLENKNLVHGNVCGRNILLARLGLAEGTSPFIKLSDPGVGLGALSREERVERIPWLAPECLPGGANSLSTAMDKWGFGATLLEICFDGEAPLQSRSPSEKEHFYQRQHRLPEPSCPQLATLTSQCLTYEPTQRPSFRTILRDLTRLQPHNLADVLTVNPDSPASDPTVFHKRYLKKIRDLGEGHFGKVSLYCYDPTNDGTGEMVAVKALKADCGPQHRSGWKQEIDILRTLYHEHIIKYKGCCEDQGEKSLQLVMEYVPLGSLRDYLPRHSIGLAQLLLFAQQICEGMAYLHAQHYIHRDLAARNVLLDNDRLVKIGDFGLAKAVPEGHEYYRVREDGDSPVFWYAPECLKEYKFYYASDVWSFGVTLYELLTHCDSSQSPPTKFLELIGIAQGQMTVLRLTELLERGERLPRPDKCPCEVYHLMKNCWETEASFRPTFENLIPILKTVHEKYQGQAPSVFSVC
Experimental: (§2) The inhibition rates of tested compounds on JAK1, JAK2, JAK3, TYK2, CDK7, CDK9, EGFR (T790M) and LRRK2 kinases were measured. The test concentrations of the compounds were 10 nM and 100 nM, and the detection was performed by replicate wells. Alternatively, compounds were 3-fold serial diluted from 10 µM for 10 concentrations in replicate wells.

[5] = target: T2, LRRK2 (Homo sapiens, UniProt Q5S007); experiment: experiment of inhibiting kinase activity, LRRK2; format: biochemical; details: read-out: inhibition rate LRRK2; for inhibition at 0.01 µM: at 10 nM
T2 sequence (Q5S007 whole entry): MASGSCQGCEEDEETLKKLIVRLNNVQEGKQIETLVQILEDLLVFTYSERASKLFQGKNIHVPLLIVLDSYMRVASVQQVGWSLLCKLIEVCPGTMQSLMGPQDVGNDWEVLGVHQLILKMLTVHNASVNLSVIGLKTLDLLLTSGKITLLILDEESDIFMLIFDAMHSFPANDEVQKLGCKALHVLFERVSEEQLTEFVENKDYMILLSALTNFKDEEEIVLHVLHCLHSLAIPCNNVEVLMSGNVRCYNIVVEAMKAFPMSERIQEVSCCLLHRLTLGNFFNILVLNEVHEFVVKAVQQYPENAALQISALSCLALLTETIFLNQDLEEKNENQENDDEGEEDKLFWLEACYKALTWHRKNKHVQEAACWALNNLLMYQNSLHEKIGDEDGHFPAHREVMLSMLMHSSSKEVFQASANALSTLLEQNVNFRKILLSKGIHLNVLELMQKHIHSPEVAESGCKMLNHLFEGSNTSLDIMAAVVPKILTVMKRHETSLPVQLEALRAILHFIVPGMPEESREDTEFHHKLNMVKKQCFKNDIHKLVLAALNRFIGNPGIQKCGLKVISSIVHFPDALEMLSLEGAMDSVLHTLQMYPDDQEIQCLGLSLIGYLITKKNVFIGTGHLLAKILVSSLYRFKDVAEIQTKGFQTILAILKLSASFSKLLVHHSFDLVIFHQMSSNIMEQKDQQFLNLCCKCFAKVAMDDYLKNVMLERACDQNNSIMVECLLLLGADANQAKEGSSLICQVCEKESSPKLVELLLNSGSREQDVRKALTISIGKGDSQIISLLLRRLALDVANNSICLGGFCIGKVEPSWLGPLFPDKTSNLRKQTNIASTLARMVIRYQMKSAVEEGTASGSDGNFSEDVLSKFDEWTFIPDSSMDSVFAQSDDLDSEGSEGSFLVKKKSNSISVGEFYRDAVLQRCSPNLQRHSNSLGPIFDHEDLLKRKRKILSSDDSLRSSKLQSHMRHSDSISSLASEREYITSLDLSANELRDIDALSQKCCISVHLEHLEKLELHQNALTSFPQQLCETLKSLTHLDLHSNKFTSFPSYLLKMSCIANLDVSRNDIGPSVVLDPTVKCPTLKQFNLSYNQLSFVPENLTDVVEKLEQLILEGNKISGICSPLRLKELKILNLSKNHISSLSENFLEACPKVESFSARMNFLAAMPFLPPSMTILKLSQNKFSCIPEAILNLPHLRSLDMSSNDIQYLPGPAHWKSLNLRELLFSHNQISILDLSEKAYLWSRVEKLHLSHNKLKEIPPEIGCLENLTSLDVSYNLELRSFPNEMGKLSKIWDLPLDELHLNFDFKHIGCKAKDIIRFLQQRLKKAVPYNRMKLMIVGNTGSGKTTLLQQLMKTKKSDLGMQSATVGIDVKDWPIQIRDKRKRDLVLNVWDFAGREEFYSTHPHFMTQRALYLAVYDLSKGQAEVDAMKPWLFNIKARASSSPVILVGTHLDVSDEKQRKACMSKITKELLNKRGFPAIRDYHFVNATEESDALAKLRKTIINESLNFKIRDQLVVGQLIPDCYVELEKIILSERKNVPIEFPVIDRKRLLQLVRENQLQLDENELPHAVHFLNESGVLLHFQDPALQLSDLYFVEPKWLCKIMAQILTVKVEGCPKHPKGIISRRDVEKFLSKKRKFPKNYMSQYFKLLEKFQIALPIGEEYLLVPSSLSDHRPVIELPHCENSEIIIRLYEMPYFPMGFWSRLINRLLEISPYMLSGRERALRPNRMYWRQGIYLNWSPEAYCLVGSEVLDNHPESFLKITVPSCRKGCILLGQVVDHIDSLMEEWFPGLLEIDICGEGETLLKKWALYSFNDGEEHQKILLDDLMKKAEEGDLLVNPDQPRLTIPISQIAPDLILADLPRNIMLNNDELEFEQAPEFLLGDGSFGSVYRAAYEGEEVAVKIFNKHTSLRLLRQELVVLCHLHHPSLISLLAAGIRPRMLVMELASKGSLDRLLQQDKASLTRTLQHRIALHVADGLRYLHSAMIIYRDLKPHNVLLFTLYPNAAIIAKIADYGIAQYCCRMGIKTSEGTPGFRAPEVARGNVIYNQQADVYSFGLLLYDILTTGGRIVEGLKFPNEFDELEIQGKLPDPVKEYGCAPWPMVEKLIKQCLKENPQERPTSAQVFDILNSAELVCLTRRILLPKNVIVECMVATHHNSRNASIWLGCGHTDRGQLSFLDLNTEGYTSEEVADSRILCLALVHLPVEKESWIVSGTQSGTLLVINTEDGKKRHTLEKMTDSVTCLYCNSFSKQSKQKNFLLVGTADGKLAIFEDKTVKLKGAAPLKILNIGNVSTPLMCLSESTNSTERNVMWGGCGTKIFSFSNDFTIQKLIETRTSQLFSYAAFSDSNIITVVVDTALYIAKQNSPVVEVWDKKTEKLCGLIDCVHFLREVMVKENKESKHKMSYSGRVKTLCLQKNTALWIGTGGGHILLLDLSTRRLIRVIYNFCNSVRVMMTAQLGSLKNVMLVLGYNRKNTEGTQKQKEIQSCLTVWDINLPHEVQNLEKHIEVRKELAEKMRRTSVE
Experimental: as §2

[6] = measurement of the solubility of compounds in water and diluted hydrochloric acid; format: physicochemical; details: thermodynamic from solid; for solubility at 1 h: simulated gastric fluid, diluted hydrochloric acid solution A (pH-1.5), room temperature; for solubility: ultrapure water (pH-6), room temperature overnight
Experimental: Example 117: measurement of the solubility of compounds in water and diluted hydrochloric acid
The compounds were dissolved in acetonitrile (LCMS pure) and prepared into standard samples having the concentration gradient of 1000 µg/mL, 500 µg/mL, 250 µg/mL, 125 µg/mL, 62.5 µg/mL, and 31.25 µg/mL.
(§3) About 1.0 mg of the powder of the compound to be tested was weighed and added to 0.3 mL of ultrapure water (pH-6), the resulting mixture was shaked thoroughly at room temperature overnight and centrifuged, and the supernatant was taken and diluted 10 times with acetonitrile. The sample was analyzed after mixing evenly.
as §3, with “153.8 µL of 6 M HCl was pipetted, 20 mL of water was added, and mixed evenly to prepare diluted hydrochloric acid solution A (pH-1.5). About” for “About”, “diluted hydrochloric acid solution A,” for “ultrapure water (pH-6),”, “for 1 hour” for “overnight”
The standard sample and the sample to be tested were analyzed by Shimadzu LCMS-2020, where chromatographic column was Skim-psck GIST 5 µm C18 2.1*[…]; mobile phase A was water and mobile phase B was methanol; and flow rate was 0.3 mL/min. The gradient of B was as the following: 0 min: 10%; 0-1.0 min: 10%; 1.0-2.5 min: 95%; 3.0-4.0 min: 95%; 4.0-4.1 min: 10%; 4.1-6.0 min: 10%.
The relationship between the concentration and peak area of the standard sample was ploted into a standard curve, and the concentration of the sample to be tested was calibrated using this standard curve. Compound solubility = concentration of the sample to be tested × 10 [formula]

[7] = target: T2, LRRK2; experiment: experiment of inhibiting LRRK2 kinase activity (ADP-Glo method); format: biochemical; details: Table 4
Experimental: The inhibitory effect of the compounds on the activity of LRRK2 kinase was detected by ADP-Glo method. The diluted solutions of the compounds were transfered to a 384-well plate (784075, Greiner), the plate was sealed and centrifuged at a speed of 1000 g for 1 minute. A kinase solution at 2-fold final concentration was prepared with 1×kinase buffer, 2.5 µl of the kinase solution with 2-fold final concentration was added to the wells, the plate was centrifuged at 1000 g for 30 seconds, and left at room temperature for 10 minutes. A mixed solution of ATP and kinase substrate at 2-fold final concentration was prepared with 1×kinase buffer, and 2.5 µL of mixed solution of ATP and substrate at 2-fold final concentration was added to start the reaction. The plate was centrifuged at 1000 g for 30 seconds, sealed and left at room temperature for 2 hours. 4 µL of ADP-Glo reagent was added and incubated at room temperature for 40 minutes; 8 µL kinase detection reagent was added and incubated at room temperature for another 40 minutes. The luminescence signal value was detected on Envision 2104 microplate reader. The conversion inhibition rate%=100-(compound signal value-positive control signal value)/(blank control signal value-positive control signal value)×100.
The IC50 was calculated with GraphPad 6.0 and the dose-responsive curve of the compounds was plotted as follows: y=Bottom+(Top-Bottom)/(1+10^((logic50-x)×hillslope)), where x was logarithm of inhibitor concentration; and y was % inhibition rate.

[8] = target: T3, endogenous phosphorylated LRRK2 (S935) (Homo sapiens, UniProt Q5S007); experiment: detection of endogenous phosphorylated LRRK2 (S935) in A549 cells (Western blot); format: cell-based; details: at 2 µM, LRRK2 (S935) activity in A549 cells, 15 hours; read-out: Inhibition rate
T3 construct: Detection of endogenous phosphorylated LRRK2 (S935) in A549 cells; endogenous in cells; host or cells: A549
T3 sequence (Q5S007 whole entry): as above
Experimental: Detection of endogenous phosphorylated LRRK2 (S935) in A549 cells
A549 cells were resuspended in serum-free 1640 medium at a density of 1×10^6 cells/ml, and inoculated into a 6-well plate at 1 ml/well, and cultured at 37°C and 5% CO2 for 6-8 hours. 1 microliter of compound solution in DMSO or DMSO (volume ratio of 0.1%) was added, mixed evenly, and cultivated at 37°C and 5% CO2 for 15 hours. Cells were collected, 50 microliters of RIPA III lysis solution were added to each sample to lyse cells on ice for 15 minutes, centrifuged at 4°C and 13000 rpm for 30 minutes, the supernatant was collected, the protein concentration of cell lysis solution was measured by BCA, and the protein concentrations of all samples were normalized. 5×sample loading buffer were added and kept at 95°C for 10 minutes. The content of phosphorylated S935 of endogenous LRRK2 was detected by Western blot, using antibody against phosphorylated LRRK2 (S935) (Abcam#133450). The signal intensity of phosphorylated LRRK2 (S935) was counted by Image J, the signal of phosphorylated LRRK2 (S935) in a sample was normalized by β-actin, and the data was analyzed.

[9] = target: CDK7 (Homo sapiens, UniProt P50613); experiment: experiment of inhibiting kinase activity (Caliper mobility shift assay), CDK7; format: biochemical; details: read-out: inhibition rate CDK7
In short: as §1

[10] = target: CDK9 (Homo sapiens, UniProt P50750); experiment: experiment of inhibiting kinase activity (Caliper mobility shift assay), CDK9; format: biochemical; details: at 100 nM; read-out: inhibition rate CDK9
Experimental: as §2
The inhibitory effects of the compounds on JAK1, JAK2, JAK3, CDK7 and CDK9 kinases were detected by the method of Caliper mobility shift assay. 250 nL of the compound at 100-fold final concentration was transferred to a destination plate 384-well-plate by using a liquid handler Echo 550. A kinase solution at 2.5-fold final concentration was prepared with 1×kinase buffer. 10 µL of the kinase solution with 2.5-fold final concentration was added to compound wells and positive control wells; and 10 µL of 1×kinase buffer was added to negative control wells. The mixture was centrifuged at 1000 rpm for 30 seconds and then incubated at room temperature for 10 minutes. A mixed solution of ATP and kinase substrate at 5/3-fold final concentration was prepared with 1×kinase buffer, and 15 µL of the mixed solution of ATP and substrate at 5/3-fold final concentration was added to start the reaction. The 384-well plate was centrifuged at 1000 rpm for 30 seconds, shaked and mixed evenly, then incubated at room temperature for a corresponding time. 30 µL of stop solution was added to stop the kinase reaction, the mixture was centrifuged at 1000 rpm for 30 seconds, and shaked and mixed evenly. The conversion rate was read by Caliper EZ Reader. The conversion inhibition rate%=(average positive control conversion rate%-sample conversion rate%)/(average positive control conversion rate%-average negative control conversion rate%). Where negative control wells represent the conversion readings of the background well of kinase buffer; and positive control wells represent the conversion readings of wells without compound inhibition. With the log value of concentration as the x axis and the percentage inhibition rate as the y axis, the dose-response curve was fitted by the log (inhibitor) vs. response-variable slope of the analyzing softwar GraphPad Prism 5, and the IC50 values of each compound on enzyme activity were obtained. Calculation formula is as follows: y=Bottom+(Top-Bottom)/(1+10^((LogIC50-x)×hillslope)), where x is logarithm of inhibitor concentration; and Y is % inhibition rate.

| inhibition at 0.01 µM ([1]; at 10 nM) [%] | inhibition at 0.01 µM [2] [%] | inhibition at 0.01 µM [3] [%] | inhibition at 0.01 µM ([4]; at 10 nM) [%] | inhibition at 0.01 µM [5] [%] | solubility at 1 h [6] [µg/mL] | solubility [6] [µg/mL] | IC50 [7] [nM] | inhibition at 2 µM [8] [%] | inhibition at 0.1 µM ([1]; at 100 nM) [%] | inhibition at 0.1 µM ([2]; at 100 nM) [%] | inhibition at 0.1 µM ([3]; at 100 nM) [%] | inhibition at 0.1 µM ([4]; at 100 nM) [%] | inhibition at 0.1 µM ([5]; at 100 nM) [%] | inhibition at 0.01 µM ([9]; at 10 nM) [%] | inhibition at 0.1 µM ([9]; at 100 nM) [%] | inhibition at 0.1 µM [10] [%] | SMILES |
| --- | --- | --- | --- | --- | --- | --- | --- | --- | --- | --- | --- | --- | --- | --- | --- | --- | --- |
| > 80 | > 80 | > 80 | > 80 | > 80 | > 3500 | 120 (≈ 216 µM) | – | – | – | – | – | – | – | – | – | – | CN1CCOCCOc2cc(Nc3nc(-c4cnn([C@@H](CC#N)C5CCCC5)c4)c4cc[nH]c4n3)ccc2OCC1 [Example 75, (S)-3-cyclopentyl-3-(4-(2-((7-methyl-2,3,6,7,8,9-hexahydro-5H-benzo[b][1,4,7]trioxa[10]azacyclododecan-13-yl)amino)-7H-pyrrolo[2,3-d]pyrimidin-4-yl)-1H-pyrazol-1-yl) propionitrile] |
| – | – | – | – | – | > 3770 | 680 (≈ 1290 µM) | < 100 | > 80 | – | – | – | – | – | – | – | – | CN1CCOCCOc2ccc(Nc3ncc(C(F)(F)F)c(O[C@H]4CC[C@@](C)(O)CC4)n3)cc2OCC1 [Example 7, (1s,4s)-1-methyl-4-((2-((7-methyl-2,3,6,7,8,9-hexahydro-5H-benzo[b][1,4,7]trioxa[10]azacyclododecan-12-yl)amino)-5-(trifluoromethyl)pyrimidin-4-yl)oxy)cyclohexan-1-ol] |
| – | 40 to 79 | > 80 | – | > 80 | > 4330 | 180 (≈ 326 µM) | – | – | 40 to 79 | > 80 | > 80 | 40 to 79 | > 80 | 40 to 79 | > 80 | 40 to 79 | CC(C)S(=O)(=O)c1ccccc1Nc1nc(Nc2ccc3c(c2)OCCOCCNCCO3)nc2[nH]ccc12 [Example 97, N^2-(2,3,6,7,8,9-hexahydro-5H-benzo[b][1,4,7]trioxa[10]azacyclododecan-13-yl)-N^4-(2-(isopropylsulfonyl)phenyl)-7H-pyrrolo[2,3-d]pyrimidin-2,4-diamine] |
| – | – | – | – | – | > 3830 | 688 (≈ 1450 µM) | < 100 | – | – | – | – | – | – | – | – | – | CN1CCOc2ccc(Nc3ncc(C(F)(F)F)c(NCCP(C)(C)=O)n3)cc2OCC1 [Example 86, dimethyl(2-((2-((4-methyl-3,4,5,6-tetrahydro-2H-benzo[b][1,4,7]dioxazolin-9-yl)amino)-5-(trifluoromethyl)pyrimidin-4-yl)amino)ethyl)phosphine oxide] |
